Test system: FLT3 Variants, FLT3 Activating Mutations, and Co-Occurring Mutations
Experiment: Example 1: single cell DNA sequencing (TAPESTRI) of longitudinal bone marrow samples
Format: in vivo, human
Settings: for Variant allele frequency FLT3 D835E: D1 0%; for Variant allele frequency DNMT3A R882H / Variant allele frequency FLT3 D839G / Variant allele frequency KRAS G12D / Variant allele frequency NRAS G13V: D1 1%; for Variant allele frequency FLT3 N841K: D1 18%; for Variant allele frequency FLT3 A680V: D1 20%; for Variant allele frequency FLT3 ITD: D1 22%; for Variant allele frequency DNMT3A R882C: D1 41%; for Variant allele frequency NPM1 dupTCTG: D1 44%
Description: In one aspect of the invention pertains to single cell sequencing analysis of recurrent AML genetic mutations that is performed using the […]™ platform. To use said platform, a cell suspension is introduced onto the platform using microfluidics, and each cell is then encapsulated in an oil droplet along with a protease to aid in DNA isolation. Cells are then lysed and loaded back onto the […]™ platform, where each single nucleus is encapsulated with a unique DNA based barcode linked to acrylamide-based beads and PCR master mix and primer sets against recurrent AML mutant genes in an oil droplet. These droplets are directly deposited in PCR tubes and exposed to UV light to release the barcodes. Subsequently the barcoded genomic DNA within the droplets can be amplified according to standard PCR amplification techniques. In this same aspect the PCR products are then isolated using standard molecular biology techniques and then libraries prepared for next-generation sequencing compatible with Illumina platforms (including MiSeq, HiSeq, and NovaSeq), followed by sequencing said libraries on one of the validated Illumina platforms (including MiSeq, HiSeq, and NovaSeq). In the same aspect, the sequencing contains at least 1,000,000 reads per sample, and the allele dropout out rate is at most 10%. Next-generation sequencing data can be analyzed at least one of but not limited to using […] Pipeline to generate genetic variant calls followed by […] Insight for final analysis including determining co-occurring genetic mutations, or standard next generation sequencing (NGS) analysis methods known to one skilled in the art.
The present invention includes the follow method of preparing single cell DNA sequencing. One example is a single-cell multi-omic assay for detecting single nucleotide variants, copy number variants, and protein changes simultaneously from the same cell, such as […]™. Mononuclear cells were isolated from bone marrow samples via FICOLL-PAQUE® gradient, resuspended in a 10% DMSO solution and frozen at −20° C. until needed. Single cell suspensions were prepared from thawed mononuclear cell samples to final concentrations indicated by the manufacturer's instructions, then loaded onto the […]™ instrument. According to the manufacturer, the […]™ platform uses microfluidics to separate single cells, encapsulate each cell within a […] droplet, proteases are added to each droplet to aid in DNA isolation. Cell encapsulation, targeted PCR, and next generation library preparation were performed per the […]™ platform's manufacturer's instructions using the […]™ platform and the Thermo Fisher SimpliAmp thermal cycler (cat #A24811, or equivalent). The prepared single-cell DNA library was sequenced using Illumina's MiSeq instrument, per the manufacturer's instructions. Analysis of these next-generation sequencing data was performed by first processing the sequencing data using the […] Pipeline (available on the Mission Bio website) to ultimately generate variant calls. The resultant loom files are then imported into the […]™ bioinformatics software, Insight, which is used to identify relevant variants, including co-occurring and rare mutations.
Longitudinal bone marrow samples obtained throughout the course of treatment were analyzed using single cell sequencing. […]

[1] = Consolidation (D237), HiDAC + crenolanib
[2] = Induction (D53), induction chemotherapy + crenolanib
[3] = Maintenance (D294), single agent crenolanib besylate
[4] = Maintenance (D406), completion of single agent maintenance

For `CC1(COc2ccc3c(c2)ncn3-c2ccc3cccc(N4CCC(N)CC4)c3n2)COC1` [crenolanib, 4-Piperidinamine, 1-[2-[5-[(3-methyl-3-oxetanyl)methoxy]-1H-benzimidazol-1-yl]-8-quinolinyl]], the “Variant allele frequency FLT3 D835E” value [1] was 0%, the “Variant allele frequency DNMT3A R882H” value [1] was 1% and the “Variant allele frequency FLT3 D839G” value [1] was 1%. The “Variant allele frequency KRAS G12D” value [1] was 1%, the “Variant allele frequency NRAS G13V” value [1] was 0% and the “Variant allele frequency FLT3 N841K” value [1] was 0%. The “Variant allele frequency FLT3 A680V” value [1] was 1%, the “Variant allele frequency FLT3 ITD” value [1] was 0% and the “Variant allele frequency DNMT3A R882C” value [1] was 5%. For the same compound, the “Variant allele frequency NPM1 dupTCTG” value [1] was 0%, the “Variant allele frequency FLT3 D835E” value [2] was 1% and the “Variant allele frequency DNMT3A R882H” value [2] was 3%. For the same compound, the “Variant allele frequency FLT3 D839G” value [2] was 3%, the “Variant allele frequency KRAS G12D” value [2] was 0% and the “Variant allele frequency NRAS G13V” value [2] was 0%. For the same compound, the “Variant allele frequency FLT3 N841K” value [2] was 0%, the “Variant allele frequency FLT3 A680V” value [2] was 0% and the “Variant allele frequency FLT3 ITD” value [2] was 3%. For the same compound, the “Variant allele frequency DNMT3A R882C” value [2] was 0%, the “Variant allele frequency NPM1 dupTCTG” value [2] was 4% and the “Variant allele frequency FLT3 D835E” value [3] was 0%. For the same compound, the “Variant allele frequency DNMT3A R882H” value [3] was 0%, the “Variant allele frequency FLT3 D839G” value [3] was 0% and the “Variant allele frequency KRAS G12D” value [3] was 0%. For the same compound, the “Variant allele frequency NRAS G13V” value [3] was 0%, the “Variant allele frequency FLT3 N841K” value [3] was 0% and the “Variant allele frequency FLT3 A680V” value [3] was 0%. For the same compound, the “Variant allele frequency FLT3 ITD” value [3] was 0%, the “Variant allele frequency DNMT3A R882C” value [3] was 6% and the “Variant allele frequency NPM1 dupTCTG” value [3] was 0%. The “Variant allele frequency FLT3 D835E” value [4] was 0%, the “Variant allele frequency DNMT3A R882H” value [4] was 0% and the “Variant allele frequency FLT3 D839G” value [4] was 0%. For the same compound, the “Variant allele frequency KRAS G12D” value [4] was 0%, the “Variant allele frequency NRAS G13V” value [4] was 0% and the “Variant allele frequency FLT3 N841K” value [4] was 0%. The “Variant allele frequency FLT3 A680V” value [4] was 0%, the “Variant allele frequency FLT3 ITD” value [4] was 0% and the “Variant allele frequency DNMT3A R882C” value [4] was 8%. For the same compound, the “Variant allele frequency NPM1 dupTCTG” value [4] was 0%, the “remaining FLT3 and KRAS mutations” value (after approximately two months of single agent maintenance therapy) was “cleared” and the “remaining FLT3 and KRAS mutations” value (at the completion of maintenance therapy) was “remained absent”. For the same compound, the “all variant FLT3 clones” value (by day 79 into maintenance) was “cleared”, the “mutant containing cancer cell populations (FIGS. 2-4 scatter plots)” value (diagnosis versus 35 days following the start of induction) was “eliminated the vast majority” and the “NPM1 and FLT3-ITD” value (following consolidation) was “clearance”. For the same compound, the “variant FLT3 and FLT3 activating mutations (FIG. 1)” value (induction chemotherapy with crenolanib, HiDAC consolidation with crenolanib, single agent crenolanib maintenance) was “eliminated”.

Source: patent US11471451B2, “Uses of crenolanib” (Arog Pharmaceuticals, Inc., priority 2019, dated 2022)
